“And” between values parts separate entries of the source, which are not always exact repeats. Identical values can stand only once. The source made the active and inactive calls. The rule behind the calls is not given here. Bounds are passed on as bounds.

Alkaline phosphatase, germ cell type (Homo sapiens), sequence (P10696 whole entry, looked up): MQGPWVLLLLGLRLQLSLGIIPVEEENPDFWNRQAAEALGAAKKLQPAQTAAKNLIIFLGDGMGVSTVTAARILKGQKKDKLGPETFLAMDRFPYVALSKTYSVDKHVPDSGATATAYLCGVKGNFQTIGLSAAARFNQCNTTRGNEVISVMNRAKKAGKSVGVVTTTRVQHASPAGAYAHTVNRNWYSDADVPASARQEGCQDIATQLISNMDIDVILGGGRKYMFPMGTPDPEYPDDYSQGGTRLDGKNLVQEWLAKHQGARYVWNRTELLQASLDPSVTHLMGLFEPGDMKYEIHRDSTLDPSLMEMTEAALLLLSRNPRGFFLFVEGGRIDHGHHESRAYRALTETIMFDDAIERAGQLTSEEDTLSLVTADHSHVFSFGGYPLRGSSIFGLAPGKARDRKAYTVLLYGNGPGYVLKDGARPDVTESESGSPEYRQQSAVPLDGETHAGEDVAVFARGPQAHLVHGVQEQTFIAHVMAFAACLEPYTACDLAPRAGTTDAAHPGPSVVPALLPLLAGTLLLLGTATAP

This assay addresses Alkaline phosphatase, germ cell type (Homo sapiens) (UniProt P10696). Description: effect of analogs on PLAP-like activity, SAR follow-up, selectivity assay for mouse IAP activator project, biochemical, human placental-like ALPPL2 isozyme (AID 493139). The note with it: purified human placental-like alkaline phosphatase, enzymatic activity.
`CCOc1ccccc1CNC(=O)CCNS(=O)(=O)c1ccc2[nH]c(=O)oc2c1`: the IC50 (inhibition of PLAP activity) was > 100 µM (inactive).
The same measure for `O=C(CN1C(=O)/C(=C/c2ccco2)SC1=S)Nc1cccc(C(=O)O)c1`: > 100 µM (inactive); for `N#Cc1c(SCC(=O)Nc2ccc(C(F)(F)F)cc2)sc2c(O)cc(=O)[nH]c12`: > 100 µM (inactive); for `Cc1cc(=O)oc2cc(NC(=S)NCCC(c3ccccc3)c3ccccc3)ccc12`: > 100 µM (inactive).
For `O=C(N/N=C/c1ccsc1)c1cc(O)c(O)c(O)c1`, the IC50 (inhibition of PLAP activity) is > 100 µM (inactive).
Take `COc1cc(C(=O)NNC(=S)NC(=O)c2ccccc2C)cc(OC)c1OC`: the IC50 (inhibition of PLAP activity) is 35.7 µM.
The same measure for `CC(C)NC(=O)CSc1sc2c(O)cc(=O)[nH]c2c1C#N`: > 100 µM (inactive); for `O=C(c1ccco1)N1CCN(S(=O)(=O)c2ccc3[nH]c(=O)oc3c2)CC1`: > 100 µM (inactive); for `CCN(C(=O)C(C)N1C(=O)/C(=C/c2ccco2)SC1=S)C1CCS(=O)(=O)C1` (stereo not given): > 100 µM (inactive).
For `CCOC(=O)NC(=O)CSc1sc2c(O)cc(=O)[nH]c2c1C#N` the value was > 100 µM (inactive); for `COc1cc([N+](=O)[O-])ccc1NC(=S)NCCC(c1ccccc1)c1ccccc1`, > 100 µM (inactive).
The same measure for `COc1cccc(CNC(=O)CCNS(=O)(=O)c2ccc3[nH]c(=O)oc3c2)c1`: > 100 µM (inactive).
Turning to `CC(C(=O)NCCc1ccc(O)c(O)c1)N1C(=O)/C(=C\c2ccco2)SC1=S` (stereo not given), the IC50 (inhibition of PLAP activity) is > 100 µM (inactive).
As to `Cc1ccc(NC(=O)CCNS(=O)(=O)c2ccc3[nH]c(=O)oc3c2)c(C)c1`, the IC50 (inhibition of PLAP activity) is > 100 µM (inactive).
`O=C(CN1C(=O)/C(=C/c2ccco2)SC1=S)Nc1ccc(C(=O)O)c(O)c1`: the IC50 (inhibition of PLAP activity) was 78.4 µM.
For `COc1ccc(CNC(=O)CSc2sc3c(O)cc(=O)[nH]c3c2C#N)cc1OC` the value was > 100 µM (inactive); for `O=C(CN1C(=O)/C(=C/c2ccco2)SC1=S)Nc1ccc(C(=O)O)cc1`, > 100 µM (inactive).
The same measure for `C/C(=N\NC(=O)c1cc(O)c(O)c(O)c1)c1ccncc1`: > 100 µM (inactive); for `O=[N+]([O-])c1ccc(NC(=S)NCCC(c2ccccc2)c2ccccc2)cc1`: > 100 µM (inactive).
Regarding `N#Cc1c(SCC(=O)Nc2ccccc2C(F)(F)F)sc2c(O)cc(=O)[nH]c12`, the IC50 (inhibition of PLAP activity) was > 100 µM (inactive).
The same measure for `O=C(CN1C(=O)/C(=C/c2ccco2)SC1=S)NC1C=CS(=O)(=O)C1` (stereo not given): 28.5 µM; for `COC(=O)NNC(=O)c1cc(OC)c(OC)c(OC)c1`: > 100 µM (inactive); for `Cc1csc(NC(=O)CSc2sc3c(O)cc(=O)[nH]c3c2C#N)n1`: > 100 µM (inactive).
`COc1cc(Cl)c(C)cc1NC(=O)CSc1sc2c(O)cc(=O)[nH]c2c1C#N`: the IC50 (inhibition of PLAP activity) is > 100 µM (inactive).
For `COc1ccc(N2CCN(C(=O)CN3C(=O)/C(=C\c4ccco4)SC3=S)CC2)cc1` the value was > 100 µM (inactive); for `N#Cc1cccc(NC(=O)CCNS(=O)(=O)c2ccc3[nH]c(=O)oc3c2)c1`, > 100 µM (inactive).
As to `O=C(N/N=C/c1ccc(F)cc1)c1cc(O)c(O)c(O)c1`, the IC50 (inhibition of PLAP activity) was > 100 µM (inactive).
The same measure for `FC(F)(F)c1cccc(NC(=S)NCCC(c2ccccc2)c2ccccc2)c1`: 63.5 µM; for `O=C(CN1C(=O)/C(=C\c2ccco2)SC1=S)Nc1ccccc1C(=O)O`: > 100 µM (inactive).
For `O=C(CCCN1C(=O)/C(=C/c2ccco2)SC1=S)Nc1ccccc1` the value was > 100 µM (inactive); for `CCc1nnc(NC(=O)CSc2sc3c(O)cc(=O)[nH]c3c2C#N)s1`, > 100 µM (inactive).
`O=C(N/N=C/c1ccco1)c1cc(O)c(O)c(O)c1`: the IC50 (inhibition of PLAP activity) is > 100 µM (inactive).
The same measure for `O=C(CN1C(=O)/C(=C\c2ccco2)SC1=S)Nc1ccc(O)cc1C(=O)O`: > 100 µM (inactive); for `N#Cc1c(SCC(=O)NCc2ccc3c(c2)OCO3)sc2c(O)cc(=O)[nH]c12`: > 100 µM (inactive); for `CC(C(=O)Nc1ccc(C(=O)O)c(O)c1)N1C(=O)/C(=C\c2ccco2)SC1=S` (stereo not given): 32.6 µM.
For `CCCSc1nnc(NC(=O)CSc2sc3c(O)cc(=O)[nH]c3c2C#N)s1` the value was > 100 µM (inactive); for `Cc1ccc(NC(=O)CCNS(=O)(=O)c2ccc3[nH]c(=O)oc3c2)cc1`, > 100 µM (inactive); for `N#Cc1c(SCC(=O)Nc2nncs2)sc2c(O)cc(=O)[nH]c12`, > 100 µM (inactive).
The same measure for `O=C1/C(=C/c2ccco2)SC(=S)N1C1CCS(=O)(=O)C1` (stereo not given): 17.9 µM; for `N#Cc1c(SCC(=O)Nc2cccc(F)c2)sc2c(O)cc(=O)[nH]c12`: > 100 µM (inactive).
As to `Cc1ccc(NC(=O)CSc2sc3c(O)cc(=O)[nH]c3c2C#N)c(F)c1`, the IC50 (inhibition of PLAP activity) was > 100 µM (inactive).
For the compound `COc1ccc(NC(=O)CSc2sc3c(O)cc(=O)[nH]c3c2C#N)c(OC)c1`, the IC50 (inhibition of PLAP activity) was > 100 µM (inactive).
As to `COc1cc(C(=O)NNC(=O)c2n[nH]c3ccccc23)cc(OC)c1OC`, the IC50 (inhibition of PLAP activity) is 21.9 µM.
The same measure for `N#Cc1cccc(NC(=O)CSc2sc3c(O)cc(=O)[nH]c3c2C#N)c1`: > 100 µM (inactive); for `CCOc1ccc2nc(NC(=O)CN(C)S(=O)(=O)c3ccc4[nH]c(=O)oc4c3)sc2c1`: > 100 µM (inactive).
The same measure for `CC(C)C(C(=O)NC1CCS(=O)(=O)C1)N1C(=O)/C(=C\c2ccco2)SC1=S` (stereo not given): > 100 µM (inactive); for `CCOC(=O)N1CCN(S(=O)(=O)c2ccc3[nH]c(=O)oc3c2)CC1`: > 100 µM (inactive).
On to `CCSc1nnc(NC(=O)CSc2sc3c(O)cc(=O)[nH]c3c2C#N)s1`, for which the IC50 (inhibition of PLAP activity) is > 100 µM (inactive).
For `Cc1cc(NC(=O)CSc2sc3c(O)cc(=O)[nH]c3c2C#N)ccc1Br` the value was > 100 µM (inactive).
As to `Cc1ccc(NC(=O)CCNS(=O)(=O)c2ccc3[nH]c(=O)oc3c2)cc1N(C)C`, the IC50 (inhibition of PLAP activity) was > 100 µM (inactive).
For `CCOC(=O)N1CCC(NC(=O)CSc2sc3c(O)cc(=O)[nH]c3c2C#N)CC1` the value was > 100 µM (inactive); for `O=C(C1CCN(S(=O)(=O)c2ccc3[nH]c(=O)oc3c2)CC1)N1CC=C(c2ccccc2)CC1`, > 100 µM (inactive).
Regarding `O=C(CCNS(=O)(=O)c1ccc2[nH]c(=O)oc2c1)Nc1cccc(-c2ccno2)c1`, the IC50 (inhibition of PLAP activity) was > 100 µM (inactive).
Consider `Cc1ccc(Cl)cc1NC(=O)CSc1sc2c(O)cc(=O)[nH]c2c1C#N`, for which the IC50 (inhibition of PLAP activity) is > 100 µM (inactive).
For `O=C(CN1C(=O)/C(=C/c2ccco2)SC1=S)Nc1ccc2nccnc2c1` the value was > 100 µM (inactive).
For `CC(C(=O)NCCc1ccc(O)cc1)N1C(=O)/C(=C/c2ccco2)SC1=S` (stereo not given) the value was > 100 µM (inactive); for `O=C(CCCN1C(=O)/C(=C\c2ccco2)SC1=S)Nc1ccc(O)cc1C(=O)O`, > 100 µM (inactive).
On to `O=C(CN1C(=O)/C(=C\c2ccco2)SC1=S)Nc1cccc(C(=O)O)c1`, for which the IC50 (inhibition of PLAP activity) was > 100 µM (inactive).
For `S=C(NCCC(c1ccccc1)c1ccccc1)Nc1ccc(Cl)cc1Cl` the value was 72.1 µM; for `COc1ccc(NC(=S)NCCC(c2ccccc2)c2ccccc2)cc1`, 40.7 µM; for `CC(C)N1CCC(=NNC(=O)c2cc(O)c(O)c(O)c2)CC1`, > 100 µM (inactive) and 61.4 µM.
For `COc1ccc(NC(=O)C(CC(C)C)NS(=O)(=O)c2ccc3[nH]c(=O)oc3c2)cc1` (stereo not given) the value was > 100 µM (inactive); for `O=C(N/N=C/C1CC2CCC1C2)c1cc(O)c(O)c(O)c1` (stereo not given), > 100 µM (inactive); for `O=C(CCN1C(=O)/C(=C/c2ccco2)SC1=S)Nc1ccc(O)cc1C(=O)O`, > 100 µM (inactive).
For `O=C(CCN1C(=O)/C(=C/c2ccco2)SC1=S)Nc1ccc(C(=O)O)c(O)c1` the value was > 100 µM (inactive).
`COc1cc(C(=O)NNC(=O)C2CC2)cc(OC)c1OC`: the IC50 (inhibition of PLAP activity) was > 100 µM (inactive).
For `O=C(NCCc1ccc(Cl)cc1)C1CCCN(S(=O)(=O)c2ccc3[nH]c(=O)oc3c2)C1` (stereo not given) the value was > 100 µM (inactive).
As for `COc1ccccc1NC(=O)CSc1sc2c(O)cc(=O)[nH]c2c1C#N`, the IC50 (inhibition of PLAP activity) is > 100 µM (inactive).
For `N#Cc1c(SCC(=O)Nc2ccc(Cl)cc2Cl)sc2c(O)cc(=O)[nH]c12` the value was > 100 µM (inactive).
In the case of `O=C(O)CC(C(=O)O)N1C(=O)/C(=C/c2ccc(-c3nc4ccccc4s3)o2)SC1=S` (stereo not given), the IC50 (inhibition of PLAP activity) is > 100 µM (inactive).
For `COc1ccc(NC(=O)CCNS(=O)(=O)c2ccc3[nH]c(=O)oc3c2)cc1Cl` the value was > 100 µM (inactive).
For `CSc1cccc(NC(=O)CCNS(=O)(=O)c2ccc3[nH]c(=O)oc3c2)c1` the value was > 100 µM (inactive); for `N#Cc1c(SCC(=O)Nc2nc3ccccc3s2)sc2c(O)cc(=O)[nH]c12`, > 100 µM (inactive); for `O=C(N/N=C/C1CC=CCC1)c1cc(O)c(O)c(O)c1` (stereo not given), > 100 µM (inactive).
The same measure for `O=C(N/N=C/c1ccccc1F)c1cc(O)c(O)c(O)c1`: > 100 µM (inactive).

The record behind these values is PubChem BioAssay AID493139 (Sanford-Burnham Center for Chemical Genomics, 2011).
